# According to US8242166B2, “C(10) ethyl ester and C(10) cyclopropyl ester substituted taxanes” (Florida State University Research Foundation, Inc., priority 2008, dated 2012):
# How the values were obtained:
# [1] = system: HT29 human tumor xenografts; assay: HT29 xenograft study e133 (Example 24); type: in vivo, nude mice
# Method: […]. Control mice received the 5% E 95% L-II vehicle q4d×4. A positive reference group received i.v. therapy with compound 2, at 30 mg/kg once weekly for three weeks (q7d×3), in a vehicle of 7.5% ethanol and 7.5% Tween® 80 in 5% dextrose in water. […] The endpoint volume for tumor growth was 1,000 mm^3. […].
# SKMES lung tumors = assay: SKMES xenograft study, i.v. single dose (Example 20); type: in vivo, nude mice; details: 30 mg/kg iv qd × 1
# Method: This study was conducted at PRC as previously described. SKMES is a human lung cancer cell line. In the present study, compound 2 and all agents were administered as i.v. monotherapies in a single 30 mg/kg dose (qd×1). […] Control mice received this vehicle qd×1. […] The endpoint volume for tumor growth was 1,500 mm^3. The study was terminated on Day 23.
# [2] = system: human SKMES lung carcinoma xenografts; assay: SKMES xenograft study e82, i.v. q4d×4 (Example 21); type: in vivo, nude mice; details: 30 mg/kg i.v. q4d×4; five mice
# [3] = system: MX1 human tumor xenografts; assay: MX1 xenograft study e220, i.v. q4d×4 (Example 18); details: for maximum group mean BW loss: on D19
structure (smiles),measurement,setting,value
CCC(=O)O[C@H]1C(=O)[C@@]2(C)C([C@H](OC(=O)c3ccccc3)[C@]3(O)C[C@H](OC(=O)[C@H](O)[C@@H](NC(=O)OC4CCC4)c4cccs4)C(C)=C1C3(C)C)[C@]1(OC(C)=O)CO[C@@H]1C[C@@H]2O (stereo partly shown) [Compound 19244],MTV,[1]; 30 mg/kg i.v. q4d×4,0
same,TGD,[1]; 30 mg/kg i.v. q4d×4,172%
same,55-day survivors,"[1]; 30 mg/kg i.v. q4d×4, six mice",five
same,Max. % BW Loss; Day,[1]; 30 mg/kg iv Q4d × 4,−17.3%; Day 17
same,# Death NTR,"[1]; 30 mg/kg iv Q4d × 4, n=6",0
same,% TGD,SKMES lung tumors,61.94%
same,"MTV (n), Day 23",SKMES lung tumors,352.00 (5) mm^3
same,Median TTE,SKMES lung tumors,23 days
same,T-C,SKMES lung tumors,8.8 days
same,NTR NTRm,SKMES lung tumors; n=5,0
same,PR (partial regression),SKMES lung tumors; n=5,0
same,TFS (tumor-free survivor),SKMES lung tumors; n=5,1
same,TR (treatment-related death),SKMES lung tumors; n=5,0
same,TFS,[2],3
same,partial response,[2],two
same,% TGD,[3]; 7.5 mg/kg iv q4d × 4,217.17%
same,BW Nadir,[3]; 7.5 mg/kg iv q4d × 4,−3.1% (19)
same,"MTV (n), Day 57",[3]; 7.5 mg/kg iv q4d × 4,0.00 (5) mm^3
same,Median TTE,[3]; 7.5 mg/kg iv q4d × 4,57 days
same,T-C,[3]; 7.5 mg/kg iv q4d × 4,39.03 days
same,CR (complete regression),"[3]; 7.5 mg/kg iv q4d × 4, n=5",5
same,NTR (non-treatment-related death),"[3]; 7.5 mg/kg iv q4d × 4, n=5",0
same,PR (partial regression),"[3]; 7.5 mg/kg iv q4d × 4, n=5",0
same,TFS (tumor-free survivor),"[3]; 7.5 mg/kg iv q4d × 4, n=5",3
same,TR (treatment-related death),"[3]; 7.5 mg/kg iv q4d × 4, n=5",0
same,transient CRs,"[3]; 7.5 mg/kg iv q4d × 4, n=5",2
same,maximum group mean BW loss,[3]; 7.5 mg/kg iv q4d × 4,3.1%
same,% TGD,[3]; 15 mg/kg iv q4d × 4,217.17%
same,BW Nadir,[3]; 15 mg/kg iv q4d × 4,−7.6% (19)
same,"MTV (n), Day 57",[3]; 15 mg/kg iv q4d × 4,0.00 (5) mm^3
same,Median TTE,[3]; 15 mg/kg iv q4d × 4,57 days
same,T-C,[3]; 15 mg/kg iv q4d × 4,39.03 days
same,CR (complete regression),"[3]; 15 mg/kg iv q4d × 4, n=5",5
same,NTR (non-treatment-related death),"[3]; 15 mg/kg iv q4d × 4, n=5",0
same,PR (partial regression),"[3]; 15 mg/kg iv q4d × 4, n=5",0
same,TFS (tumor-free survivor),"[3]; 15 mg/kg iv q4d × 4, n=5",5
same,TR (treatment-related death),"[3]; 15 mg/kg iv q4d × 4, n=5",0
same,maximum group mean BW loss,[3]; 15 mg/kg iv q4d × 4,7.6%
same,% TGD,[3]; 30 mg/kg iv q4d × 4,217.17%
same,BW Nadir,[3]; 30 mg/kg iv q4d × 4,−18.9% (19)
same,"MTV (n), Day 57",[3]; 30 mg/kg iv q4d × 4,0.00 (5) mm^3
same,Median TTE,[3]; 30 mg/kg iv q4d × 4,57 days
same,T-C,[3]; 30 mg/kg iv q4d × 4,39.03 days
same,CR (complete regression),"[3]; 30 mg/kg iv q4d × 4, n=5",4
same,NTR (non-treatment-related death),"[3]; 30 mg/kg iv q4d × 4, n=5",0
same,PR (partial regression),"[3]; 30 mg/kg iv q4d × 4, n=5",1
same,TFS (tumor-free survivor),"[3]; 30 mg/kg iv q4d × 4, n=5",4
same,TR (treatment-related death),"[3]; 30 mg/kg iv q4d × 4, n=5",0
same,maximum group mean BW loss,[3]; 30 mg/kg iv q4d × 4,18.9%
"CC(=O)O[C@@]12CO[C@@H]1C[C@H](O)[C@@]1(C)C(=O)[C@H](O)C3=C(C)[C@@H](OC(=O)[C@H](O)[C@@H](NC(=O)OC(C)(C)C)c4ccccc4)C[C@@](O)([C@@H](OC(=O)c4ccccc4)[C@H]21)C3(C)C [Docetaxel, docetaxel, reference compound]",# Death NTR,"[1]; 30 mg/kg iv Q7d × 3, n=6",0
same,# Death TR,"[1]; 30 mg/kg iv Q7d × 3, n=6",0
same,% TGD,SKMES lung tumors,61.94%
same,"MTV (n), Day 23",SKMES lung tumors,166.75 (4) mm^3
same,Median TTE,SKMES lung tumors,23 days
same,T-C,SKMES lung tumors,8.8 days
same,CR (complete regression),SKMES lung tumors; n=5,0
same,NTR NTRm,SKMES lung tumors; n=5,0
same,PR (partial regression),SKMES lung tumors; n=5,2
same,TFS (tumor-free survivor),SKMES lung tumors; n=5,0
same,TR (treatment-related death),SKMES lung tumors; n=5,0
same,% TGD,[3]; 25 mg/kg iv qwk × 3,217.17%
same,BW Nadir,[3]; 25 mg/kg iv qwk × 3,−10.9% (22)
same,"MTV (n), Day 57",[3]; 25 mg/kg iv qwk × 3,0.00 (5) mm^3
same,Median TTE,[3]; 25 mg/kg iv qwk × 3,57 days
same,T-C,[3]; 25 mg/kg iv qwk × 3,39.03 days
same,CR (complete regression),"[3]; 25 mg/kg iv qwk × 3, n=5",5
same,NTR (non-treatment-related death),"[3]; 25 mg/kg iv qwk × 3, n=5",0
same,PR (partial regression),"[3]; 25 mg/kg iv qwk × 3, n=5",0
same,TFS (tumor-free survivor),"[3]; 25 mg/kg iv qwk × 3, n=5",5
same,TR (treatment-related death),"[3]; 25 mg/kg iv qwk × 3, n=5",0
